pIC50: −log10 of the molar value. The source made the active and inactive calls. The rule behind the calls is not given here. A value given as a limit tells only on which side of the number the result lay.

Results on 49 molecules are retold here after PubChem BioAssay AID1419 (Emory University Molecular Libraries Screening Center, 2008).

This assay in a line: EBV protein-peptide binding inhibitors, dose response, biochemical, fluorescence polarization (AID 1419). Conditions: cell-free protein-peptide binding, 2 h; for fold change: measured here: P channel fold over control, at 54 µM. For orientation: Polarisation of emitted light reports the rotation of a fluorescent probe.

The term pIC50 denotes −log10 of the IC50, conventionally taken in molar units. As for `CN(C)c1ccc(/C=C/C(=O)c2cc(Cl)ccc2O)cc1`, the pIC50 is 4.80 and the fold change is 1.94.
For orientation: IC50 means the concentration that inhibits the measured activity by half. As to `O=C1CCC(=O)N1c1nc2n(n1)C(c1ccccc1)C=C(c1ccc(Br)cc1)N2` (stereo not drawn), the IC50 is > 54 µM (inactive) and the fold change amounted to 1.53.
For `O=C(NNC(=O)c1sccc1-n1cccc1)c1cccc(Cl)c1` the same measures were > 54 µM (inactive) and 0.963.
As for `CCN(c1ccc(N=Cc2c(O)n(Cc3ccc(OC)cc3)c(=O)c3ccccc23)cc1)C(C)C`, the pIC50 is 5.66 and the fold change was 132.
Consider `COc1ccc(-c2csc(NC(=O)CSc3nc(C)nc4sc(C(=O)O)c(C)c34)n2)cc1`, for which the IC50 is > 54 µM (inactive) and the fold change is 0.987.
As for `COc1ccc(/C=C2\SC(=S)N(CCCC(=O)Nc3ccccn3)C2=O)cc1OC`, the pIC50 was 5.06 and the fold change was 9.33.
As for `CCc1cccc2cc3c(N)c(C(=O)Nc4ccc(S(=O)(=O)N5CCCC5)cc4)sc3nc12`, the pIC50 is 5.79 and the fold change amounted to 8.07.
Regarding `COc1ccc(/C=N/N=C2/CC(C)(C)Cc3n[nH]c(=O)cc32)cc1`, the negative logarithm of the IC50 (pIC50) is 5.38 and the fold change was found to be 3.61.
With `O=C(O)COn1c(-c2ccccc2)nc2ccc([N+](=O)[O-])cc21`, the IC50 is > 54 µM (inactive) and the fold change turned out to be 1.17.
Take `CN1CCC2(CC1)C1CN(C)CC=C1C(C#N)=C(N)C2(C#N)C#N` (stereo not drawn): the pIC50 was 5.60 and the fold change is 7.69.
Turning to `Nc1cc2c3c(cccc3c1)C(=O)N(CCN1CCCC1)C2=O`, the pIC50 was 5.32 and the fold change stood at 3.92.
Regarding `Cc1nnc(NC(=O)CSc2cn(CCNC(=O)c3ccccc3)c3ccccc23)s1`, the IC50 is > 54 µM (inactive) and the fold change turned out to be 1.05.
Consider `COc1ccc2ccccc2c1C(O)c1nccn1C` (stereo not drawn), for which the negative-log IC50 (pIC50) is 5.57 and the fold change was determined as 5.13.
Take `COc1ccc(Cc2nnc(NC(=O)Cc3cccs3)s2)cc1`: the IC50 was > 54 µM (inactive) and the fold change was 1.04.
For the molecule `Nc1ccc(N)c(C(=O)O)c1`, the pIC50 is 5.42 and the fold change was 2.6.
In the case of `O=S(=O)(Nc1cc2nc3ccccc3nc2n1Cc1ccccc1)c1ccc(Cl)cc1`, the pIC50 was 5.54 and the fold change is 13.
The like results for `Cc1cc(=O)oc2cc(OCC(=O)N/N=C/c3cc([N+](=O)[O-])ccc3O)ccc12` were, in that order, 5.33 and 1.
The like results for `COc1ccc(-c2c(C#N)c(N)nc3sc(C(=O)c4ccc(C)cc4)c(N)c23)cc1` were, in that order, 4.63 and 5.33.
The like results for `O=C(N/N=C/c1cc(Cl)cc(Cl)c1O)c1ccncc1` were, in that order, 5.74 and 5.72.
In the case of `C(=N\NC1=Nc2cccc3cccc1c23)/c1ccccc1`, the pIC50 is 4.77 and the fold change was 11.4.
For the molecule `CCN(CC)CCN1C2=C(C(=O)CC(C)(C)C2)C(c2cccc(F)c2)C2=C1CC(C)(C)CC2=O`, the IC50 is > 54 µM (inactive) and the fold change turned out to be 1.03.
`CN(N=Nc1ccc([N+](=O)[O-])cc1)c1ccccc1`: the pIC50 was 5.40 and the fold change amounted to 61.8.
For `Cc1cc(=O)oc(C)c1C(=O)Nc1ccc2ncccc2c1` the same measures were 5.53 and 5.89.
The like results for `CCOc1ccc(C2CC(c3c(O)c4ccccc4oc3=O)=NN2c2ccccc2)cc1OC` (stereo not drawn) were, in that order, 5.69 and 49.3.
For the molecule `Cc1[nH]c(=O)[nH]c(=O)c1CSCC(=O)OCC(=O)Nc1ccccn1`, the IC50 was > 54 µM (inactive) and the fold change was found to be 1.09.
Consider `CCCCn1c(=O)[nH]c2nc3cc(NC(C)=O)ccc3nc2c1=O`, for which the pIC50 is 5.41 and the fold change stood at 3.87.
For `N#Cc1c(C#N)c(O)c2ccccc2c1O` the same measures were 5.40 and 3.34.
The like results for `CN(c1ncc(C(F)(F)F)cc1Cl)N1C(=O)c2cccc(N)c2C1=O` were, in that order, 5.42 and 1.88.
For `C(=N\N1CCOCC1)/c1nc(-c2ccccc2)n2ccccc12` the same measures were 4.58 and 4.71.
With `Cc1cccc(NC(=O)CSc2nnnn2C)n1`, the IC50 is > 54 µM (inactive) and the fold change came to 1.02.
Regarding `CCOC(=O)c1c(/N=C/c2c(O)n(-c3ccccc3F)c(=S)[nH]c2=O)sc2c1CCCC2`, the pIC50 is 5.53 and the fold change was found to be 29.6.
The like results for `CCn1c(C)cc(C=C2C(=O)c3ccccc3C2=O)c1C` were, in that order, 4.79 and 8.23.
For `COC(=O)C[n+]1cccc2ccccc21` the same measures were 5.80 and 14.8.
`CCOC(=O)c1sc2nc3c(SCCC(=O)O)cc(C(=O)c4cc(OC)ccc4O)cn3c(=O)c2c1C`: the IC50 is > 54 µM (inactive) and the fold change was determined as 1.04.
Turning to `O=C(CSc1ccsc1[N+](=O)[O-])Nc1cc(F)ccc1F`, the IC50 is > 54 µM (inactive) and the fold change was 1.05.
For `Cn1cccc1/C=C1/C(=O)NC(=O)N(Cc2ccc(F)cc2)C1=O` the same measures were > 54 µM (inactive) and 1.04.
For `COc1ccc2nc(N3C(=O)/C(=C/c4ccc(Cl)cc4)NC3=S)sc2c1` the same measures were > 54 µM (inactive) and 1.37.
`CCN(CC)c1ccc(C=C2C(=O)OC(c3ccccc3)OC2=O)cc1` (stereo not drawn): the pIC50 was 4.84 and the fold change was 10.8.
For `Cc1ccccc1C(=O)Nc1ccc2c(C#N)c3nc4ccccc4nc3n2c1` the same measures were 4.86 and 0.993.
The like results for `CN(C)c1ccc(/C=N/NC(=O)c2cnc3ccccc3c2)cc1` were, in that order, 4.73 and 3.11.
With `N#CC(C#N)=Cc1ccc(-c2ccccc2F)o1`, the pIC50 is 5.30 and the fold change was 18.8.
On to `Cc1cc(C)cc(-n2c(O)c(C=Nc3ccc(N4CCOCC4)cc3)c(=O)[nH]c2=S)c1`, for which the IC50 was > 54 µM (inactive) and the fold change was found to be 2.23.
Take `COc1ccc(N2C(=O)[C@@H]3[C@H](C2=O)[C@H]2c4ccccc4C=CN2[C@@H]3C(C)=O)cc1`: the pIC50 is 5.12 and the fold change is 5.55.
Take `O=C(CSc1nnc(SCc2ccccc2)s1)N/N=C/C=C\c1ccco1`: the IC50 was > 54 µM (inactive) and the fold change came to 1.04.
`N=c1oc2cc(O)ccc2cc1C(=O)Nc1ccccn1`: the pIC50 was 5.18 and the fold change was 5.39.
Regarding `Cc1ccc[n+](-c2[nH]c(=O)sc2/C=N/NC(=O)c2ccccc2[O-])c1`, the IC50 was 34.2 µM (inactive) and the fold change was determined as 1.69.
In the case of `Cc1ccsc1C1C=C(c2cccc(Br)c2)Nc2ncnn21` (stereo not drawn), the pIC50 is 5.76 and the fold change is 3.13.
The like results for `O=C(O)CCC(=O)NCCC1=c2ccccc2=N/C1=C\c1c(O)n(Cc2ccc(F)cc2)c(=S)[nH]c1=O` were, in that order, 5.34 and 1.16.
The like results for `O=C(c1nc2n(n1)C(c1ccc(Cl)cc1)C=C(c1ccccc1)N2)N1CCOCC1` (stereo not drawn) were, in that order, 5.64 and 5.19.
